Drawing on ChEMBL document CHEMBL4818987, “Recent advances of podophyllotoxin/epipodophyllotoxin hybrids in anticancer activity, mode of action, and structure-activity relationship: An update (2010-2020)” (Eur J Med Chem, 2020), this text covers IC50 for 21 compounds.

Common to all, as to type: functional, cell-based
One assay relates to A549. Kind of assay: Antiproliferative activity against human A549 cells incubated for 48 hrs by MTT assay. The conditions noted are these: A549, 48 h. For orientation: Tetrazolium assays rely on reduction of a dye to a coloured formazan, in cell work by metabolically active cells.
The next assay has as its system MCF7. Kind of assay: Antiproliferative activity against human MCF7 cells incubated for 48 hrs by MTT assay. The conditions noted are these: MCF7, 48 h.
The next assay relates to HeLa. Kind of assay: Antiproliferative activity against human HeLa cells incubated for 48 hrs by MTT assay.
Another assay concerns HepG2. Kind of assay: Antiproliferative activity against human HepG2 cells incubated for 48 hrs by MTT assay. The conditions noted are these: HepG2, 48 h.
Another assay concerns SMMC-7721. Put plainly: Antiproliferative activity against human SMMC-7721 cells incubated for 48 hrs by MTT assay. The conditions noted are these: SMMC-7721, 48 h.
The next assay concerns HL-60. Kind of assay: Antiproliferative activity against human HL-60 cells incubated for 48 hrs by MTT assay. The following applies: HL-60, 48 h.
For a further assay, the system named is SW480. Kind of assay: Antiproliferative activity against human SW480 cells incubated for 48 hrs by MTT assay. The conditions noted are these: SW480, 48 h.

Consider `COc1cc([C@@H]2c3cc4c(cc3[C@@H](O[C@H]3CC[C@@H](O)[C@@H](C)O3)[C@H]3COC(=O)[C@H]23)OCO4)cc(OC)c1O`, for which the IC50 in the assay with A549, in the assay on MCF7, with HeLa and in the assay with HepG2 was 41.6 nM each time.
For the compound `CCC[C@@H]1O[C@@H](O[C@H]2c3cc4c(cc3[C@@H](c3cc(OC)c(OC)c(OC)c3)[C@H]3C(=O)OC[C@@H]32)OCO4)CC[C@H]1O`, the IC50 in the assay with A549, in the assay with MCF7, in the assay with HeLa and in the assay on HepG2 was 41.6 nM each time.
Turning to `CC[C@H]1O[C@@H](O[C@@H]2c3cc4c(cc3[C@@H](c3cc(OC)c(O)c(OC)c3)[C@H]3C(=O)OC[C@@H]32)OCO4)CC[C@H]1O`, the half-maximal inhibitory concentration (IC50) with A549, with MCF7, in the assay with HeLa and with HepG2 was 41.6 nM each time.
As to `COc1cc([C@@H]2c3cc4c(cc3[C@@H](O[C@@H]3CC[C@@H](O)[C@@H](C(C)C)O3)[C@H]3COC(=O)[C@H]23)OCO4)cc(OC)c1O`, the IC50 with A549, in the assay on MCF7, in the assay on HeLa and in the assay on HepG2 was 41.6 nM throughout.
As to `COc1cc([C@@H]2c3cc4c(cc3[C@H](O[C@H]3CC[C@@H](O)[C@H](C)O3)[C@H]3COC(=O)[C@H]23)OCO4)cc(OC)c1OC`, the IC50 with A549, in the assay with MCF7, with HeLa and in the assay with HepG2 was 41.6 nM in each case.
For the compound `CC[C@H]1O[C@H](O[C@@H]2c3cc4c(cc3[C@@H](c3cc(OC)c(O)c(OC)c3)[C@H]3C(=O)OC[C@@H]32)OCO4)CC[C@H]1O`, the IC50 in the assay on A549, in the assay with MCF7, with HeLa and in the assay on HepG2 was 41.6 nM each time.
Turning to `CCC[C@H]1O[C@@H](O[C@@H]2c3cc4c(cc3[C@@H](c3cc(OC)c(O)c(OC)c3)[C@H]3C(=O)OC[C@@H]32)OCO4)CC[C@H]1O`, the IC50 in the assay on A549, in the assay on MCF7, in the assay on HeLa and with HepG2 was 41.6 nM in each case.
As to `CCC[C@H]1O[C@H](O[C@@H]2c3cc4c(cc3[C@@H](c3cc(OC)c(O)c(OC)c3)[C@H]3C(=O)OC[C@@H]32)OCO4)CC[C@H]1O`, the IC50 with A549, in the assay with MCF7, in the assay on HeLa and in the assay on HepG2 was 41.6 nM throughout.
Turning to `COc1cc([C@@H]2c3cc4c(cc3[C@@H](O[C@@H]3CC[C@@H](O)[C@H](C(C)C)O3)[C@H]3COC(=O)[C@H]23)OCO4)cc(OC)c1O`, the IC50 in the assay on A549, with MCF7, with HeLa and with HepG2 was 41.6 nM throughout.
As to `CCC[C@@H]1O[C@H](O[C@H]2c3cc4c(cc3[C@@H](c3cc(OC)c(OC)c(OC)c3)[C@H]3C(=O)OC[C@@H]32)OCO4)CC[C@H]1O`, the IC50 in the assay with A549, in the assay with MCF7, in the assay on HeLa and in the assay on HepG2 was 41.6 nM each time.
`COc1cc([C@@H]2c3cc4c(cc3[C@H](O[C@H]3CC[C@@H](O)[C@H](C(C)C)O3)[C@H]3COC(=O)[C@H]23)OCO4)cc(OC)c1OC`: the IC50 with A549, in the assay on MCF7, with HeLa and with HepG2 was 41.6 nM each time.
Regarding `COc1cc([C@@H]2c3cc4c(cc3[C@@H](O[C@@H]3CC[C@@H](O)[C@@H](C)O3)[C@H]3COC(=O)[C@H]23)OCO4)cc(OC)c1O`, the IC50 with A549, in the assay with MCF7, with HeLa and in the assay on HepG2 was 41.6 nM throughout.
`COc1cc([C@@H]2c3cc4c(cc3[C@@H](OC(=O)CCCCCNC(=O)CCCC[C@@H]3SC[C@@H]5NC(=O)N[C@@H]53)[C@H]3COC(=O)[C@H]23)OCO4)cc(OC)c1O`: the 50% inhibitory concentration (IC50) with A549, in the assay with SMMC-7721, in the assay on MCF7, in the assay with HL-60 and with SW480 was greater than 130 nM each time.
For `COc1cc([C@@H]2c3cc4c(cc3[C@@H](NC(=O)CCCCCNC(=O)CCCC[C@@H]3SC[C@@H]5NC(=O)N[C@@H]53)[C@H]3COC(=O)[C@H]23)OCO4)cc(OC)c1OC`, the IC50 in the assay on A549, in the assay with SMMC-7721, in the assay with MCF7, in the assay with HL-60 and in the assay on SW480 was greater than 130 nM each time.
As for `COc1cc([C@@H]2c3cc4c(cc3[C@@H](n3cc(COC(=O)CCCC[C@@H]5SC[C@@H]6NC(=O)N[C@@H]65)nn3)[C@H]3COC(=O)[C@H]23)OCO4)cc(OC)c1OC`, the concentration for half-maximal inhibition (IC50) in the assay with A549, with SMMC-7721, in the assay with MCF7, with HL-60 and with SW480 was greater than 130 nM in each case.
Consider `COc1cc([C@@H]2c3cc4c(cc3[C@@H](NC(=O)CCCC[C@@H]3SC[C@@H]5NC(=O)N[C@@H]53)[C@H]3COC(=O)[C@H]23)OCO4)cc(OC)c1O`, for which the IC50 with A549, in the assay with SMMC-7721, with MCF7, with HL-60 and in the assay on SW480 was greater than 130 nM in each case.
Turning to `COc1cc([C@@H]2c3cc4c(cc3[C@H](OC(=O)CCCC[C@@H]3SC[C@@H]5NC(=O)N[C@@H]53)[C@H]3COC(=O)[C@H]23)OCO4)cc(OC)c1OC`, the IC50 in the assay with A549, in the assay on SMMC-7721, in the assay with MCF7, in the assay on HL-60 and in the assay on SW480 was greater than 130 nM throughout.
Regarding `COc1cc([C@@H]2c3cc4c(cc3[C@@H](O[C@@H]3CC[C@@H](O)[C@H](C)O3)[C@H]3COC(=O)[C@H]23)OCO4)cc(OC)c1O`, the IC50 in the assay on A549, in the assay on MCF7, in the assay with HeLa and in the assay with HepG2 was 41.6 nM throughout.
`COc1cc([C@@H]2c3cc4c(cc3C[C@H]3COC(=O)[C@@H]32)OCO4)cc(OC)c1OC(=O)NCC(=O)N1CCN(c2ccc([N+](=O)[O-])cc2)CC1`: the half-inhibitory concentration (IC50) in the assay on A549 came out at 183 nM; in the assay on HeLa, 183 nM; with HepG2, 210 nM.
With `COc1cc([C@@H]2c3cc4c(cc3[C@@H](NC(=O)CCCCCNC(=O)CCCC[C@@H]3SC[C@@H]5NC(=O)N[C@@H]53)[C@H]3COC(=O)[C@H]23)OCO4)cc(OC)c1O`, the IC50 in the assay on A549, in the assay with SMMC-7721, in the assay with MCF7, with HL-60 and in the assay with SW480 was greater than 130 nM throughout.
Regarding `COc1cc([C@@H]2c3cc4c(cc3[C@@H](OC(=O)CCCCCNC(=O)CCCC[C@@H]3SC[C@@H]5NC(=O)N[C@@H]53)[C@H]3COC(=O)[C@H]23)OCO4)cc(OC)c1OC`, the IC50 in the assay on A549, in the assay with SMMC-7721, in the assay with MCF7, in the assay on HL-60 and with SW480 was greater than 130 nM in each case.

As a reminder, the IC50 is the concentration that gives 50% inhibition. Read a low IC50 as inhibition by little substance.
